# From ChEMBL document CHEMBL5537181 (J Med Chem, 2024)
# Calls of active or inactive are those of the source. The calls are words filed in the database; no cut-off is given here.
# Legend:
# [1] = target: Voltage-dependent N-type calcium channel subunit alpha-1B (Homo sapiens, UniProt Q00975); experiment: Inhibition of human Cav2.2 channel transfected in HEK293T cells co-expressed with human GABAB receptor assessed as inhibition of Cav2.2-mediated Ba2+ current measured for 3 to 5 days by whole-cell patch clamp assay; assay type: cell-based
# Chain of Voltage-dependent N-type calcium channel subunit alpha-1B (Q00975 whole entry): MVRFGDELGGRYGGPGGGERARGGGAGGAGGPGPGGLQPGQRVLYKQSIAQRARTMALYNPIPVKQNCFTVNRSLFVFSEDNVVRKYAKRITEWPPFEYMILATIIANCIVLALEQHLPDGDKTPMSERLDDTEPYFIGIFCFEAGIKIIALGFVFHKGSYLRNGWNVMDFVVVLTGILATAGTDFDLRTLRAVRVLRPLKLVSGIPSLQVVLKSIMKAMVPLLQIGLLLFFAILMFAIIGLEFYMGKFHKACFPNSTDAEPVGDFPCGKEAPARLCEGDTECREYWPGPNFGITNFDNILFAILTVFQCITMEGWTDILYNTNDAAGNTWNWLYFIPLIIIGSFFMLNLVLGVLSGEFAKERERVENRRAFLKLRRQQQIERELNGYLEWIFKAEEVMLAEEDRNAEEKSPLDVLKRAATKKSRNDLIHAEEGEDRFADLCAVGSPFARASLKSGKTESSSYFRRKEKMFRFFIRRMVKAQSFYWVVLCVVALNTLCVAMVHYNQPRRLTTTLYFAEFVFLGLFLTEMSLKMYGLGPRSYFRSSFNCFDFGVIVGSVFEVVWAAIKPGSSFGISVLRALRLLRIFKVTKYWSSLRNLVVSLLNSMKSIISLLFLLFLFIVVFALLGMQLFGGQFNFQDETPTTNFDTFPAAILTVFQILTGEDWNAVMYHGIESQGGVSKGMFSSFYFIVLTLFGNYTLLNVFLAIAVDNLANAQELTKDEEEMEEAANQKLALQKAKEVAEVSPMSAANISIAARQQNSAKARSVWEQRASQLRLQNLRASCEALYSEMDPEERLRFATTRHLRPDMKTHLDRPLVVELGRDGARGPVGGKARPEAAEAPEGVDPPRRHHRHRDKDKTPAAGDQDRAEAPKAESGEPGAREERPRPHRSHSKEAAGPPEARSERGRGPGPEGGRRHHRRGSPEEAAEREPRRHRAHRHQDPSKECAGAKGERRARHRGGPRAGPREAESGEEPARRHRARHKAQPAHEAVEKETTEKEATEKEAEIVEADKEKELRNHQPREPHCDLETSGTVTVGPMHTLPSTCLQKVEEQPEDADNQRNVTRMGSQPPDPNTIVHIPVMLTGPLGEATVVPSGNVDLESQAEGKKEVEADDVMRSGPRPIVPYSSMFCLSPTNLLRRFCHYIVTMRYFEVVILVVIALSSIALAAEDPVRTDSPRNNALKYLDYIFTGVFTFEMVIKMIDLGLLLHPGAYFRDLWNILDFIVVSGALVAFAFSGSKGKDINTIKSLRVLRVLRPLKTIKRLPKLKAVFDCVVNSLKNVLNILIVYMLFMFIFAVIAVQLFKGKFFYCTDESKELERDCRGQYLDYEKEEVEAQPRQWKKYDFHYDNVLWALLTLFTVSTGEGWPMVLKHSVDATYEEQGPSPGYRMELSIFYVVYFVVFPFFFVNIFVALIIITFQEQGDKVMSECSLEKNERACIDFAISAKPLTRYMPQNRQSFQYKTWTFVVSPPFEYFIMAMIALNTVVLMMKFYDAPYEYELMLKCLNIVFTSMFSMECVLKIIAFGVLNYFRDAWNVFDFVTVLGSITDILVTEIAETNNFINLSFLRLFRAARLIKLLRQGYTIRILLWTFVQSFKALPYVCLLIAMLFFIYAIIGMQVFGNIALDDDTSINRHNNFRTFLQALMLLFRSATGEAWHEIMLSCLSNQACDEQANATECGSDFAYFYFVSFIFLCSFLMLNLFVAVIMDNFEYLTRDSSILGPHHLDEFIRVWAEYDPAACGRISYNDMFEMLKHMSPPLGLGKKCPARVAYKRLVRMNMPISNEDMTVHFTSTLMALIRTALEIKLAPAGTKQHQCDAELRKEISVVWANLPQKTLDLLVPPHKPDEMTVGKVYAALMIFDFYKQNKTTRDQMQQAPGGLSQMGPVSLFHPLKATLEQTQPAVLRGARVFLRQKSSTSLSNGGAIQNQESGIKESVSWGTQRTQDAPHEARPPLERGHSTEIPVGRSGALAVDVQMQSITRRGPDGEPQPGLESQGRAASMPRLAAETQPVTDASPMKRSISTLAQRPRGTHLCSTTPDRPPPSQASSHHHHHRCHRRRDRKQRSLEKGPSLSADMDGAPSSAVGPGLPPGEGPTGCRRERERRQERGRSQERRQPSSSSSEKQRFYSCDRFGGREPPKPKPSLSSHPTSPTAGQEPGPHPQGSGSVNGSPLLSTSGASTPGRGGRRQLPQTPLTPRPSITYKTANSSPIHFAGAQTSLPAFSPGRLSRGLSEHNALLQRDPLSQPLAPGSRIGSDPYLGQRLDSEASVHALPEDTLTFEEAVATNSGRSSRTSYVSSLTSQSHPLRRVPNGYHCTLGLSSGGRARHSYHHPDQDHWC
# [2] = target: Neuronal acetylcholine receptor; alpha9/alpha10 (Homo sapiens, UniProt Q9GZZ6+Q9UGM1); experiment: Antagonist activity at human alpha9alpha10 nAChR expressed in acetylcholine-induced Xenopus laevis oocytes assessed as inhibition of acetylcholine-induced current by two electrode voltage-clamp assay; assay type: cell-based, Oocyte
# Chain of Neuronal acetylcholine receptor; alpha9/alpha10 (Q9UGM1 whole entry): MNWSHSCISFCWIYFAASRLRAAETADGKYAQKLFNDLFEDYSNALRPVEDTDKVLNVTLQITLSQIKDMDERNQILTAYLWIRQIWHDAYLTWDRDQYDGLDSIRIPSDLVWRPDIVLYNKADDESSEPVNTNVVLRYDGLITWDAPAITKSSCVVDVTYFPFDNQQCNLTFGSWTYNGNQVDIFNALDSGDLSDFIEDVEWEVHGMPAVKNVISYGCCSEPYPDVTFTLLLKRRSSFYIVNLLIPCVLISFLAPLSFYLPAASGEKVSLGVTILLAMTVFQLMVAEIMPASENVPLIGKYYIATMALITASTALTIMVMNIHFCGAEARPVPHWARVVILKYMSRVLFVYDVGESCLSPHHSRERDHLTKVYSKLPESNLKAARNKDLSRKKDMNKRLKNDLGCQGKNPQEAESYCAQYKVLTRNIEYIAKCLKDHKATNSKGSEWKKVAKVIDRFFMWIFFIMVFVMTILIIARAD
# Chain of Neuronal acetylcholine receptor; alpha9/alpha10 (Q9GZZ6 whole entry): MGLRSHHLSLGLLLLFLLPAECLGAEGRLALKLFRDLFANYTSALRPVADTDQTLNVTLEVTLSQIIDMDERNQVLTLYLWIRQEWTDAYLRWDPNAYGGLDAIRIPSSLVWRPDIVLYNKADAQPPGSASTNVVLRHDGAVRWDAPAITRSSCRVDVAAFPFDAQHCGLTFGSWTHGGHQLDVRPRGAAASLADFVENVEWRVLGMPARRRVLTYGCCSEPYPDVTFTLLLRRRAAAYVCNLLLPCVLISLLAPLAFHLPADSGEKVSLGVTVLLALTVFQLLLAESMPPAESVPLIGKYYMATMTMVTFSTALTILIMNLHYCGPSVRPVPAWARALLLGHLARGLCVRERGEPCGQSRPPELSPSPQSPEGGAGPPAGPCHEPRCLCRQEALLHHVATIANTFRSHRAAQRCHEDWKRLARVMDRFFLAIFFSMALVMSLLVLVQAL
# Rattus norvegicus = experiment: Analgesic activity in Chronic constriction injury rat model assessed as decrease in hyperalgesia at 300 microg/kg,IM administrated every 2 hrs and measured after 24 hrs; assay type: functional, organism-based; conditions: dose 300.0 µg/kg
Compound,IC50 [1] [nM],IC50 [2] [nM],Activity (Rattus norvegicus)
CC[C@H](C)[C@@H]1NC(=O)[C@H](CCCNC(=N)N)NC(=O)[C@H](CCCNC(=N)N)NC(=O)[C@@H]2CSSC[C@H](NC(=O)[C@H](N)[C@H](C)O)C(=O)N[C@@H](CCCNC(=N)N)C(=O)N[C@@H](CO)C(=O)N[C@@H](CO)C(=O)NCC(=O)N[C@@H](CCCNC(=N)N)C(=O)N[C@@H](Cc3ccc(O)cc3)C(=O)N[C@H](CSSC[C@H](C(=O)N[C@H](C(N)=O)C(C)C)NC(=O)[C@H](C)NC(=O)[C@H](CC(=O)O)NC(=O)[C@H]([C@@H](C)O)NC1=O)C(=O)N[C@@H](CCCNC(=N)N)C(=O)N[C@@H](CO)C(=O)N1CCC[C@H]1C(=O)N[C@@H](Cc1ccc(O)cc1)C(=O)N[C@@H](CC(=O)O)C(=O)N[C@@H](CCCNC(=N)N)C(=O)N[C@@H](CCCNC(=N)N)C(=O)N[C@@H](CCCNC(=N)N)C(=O)N[C@@H](CCCNC(=N)N)C(=O)N[C@@H](Cc1ccc(O)cc1)C(=O)N2,3,116,–
C[C@@H](O)[C@@H]1NC(=O)[C@@H]2CSSC[C@@H](C(=O)N[C@@H](Cc3ccc(O)cc3)C(=O)O)NC(=O)[C@H](CCC(N)=O)NC(=O)[C@H](Cc3ccc(O)c(I)c3)NC(=O)[C@H](CCCNC(=N)N)NC(=O)[C@H](CSSC[C@H](NC(=O)CN)C(=O)N2)NC(=O)[C@H](CCCNC(N)=O)NC(=O)[C@@H]2CCCN2C(=O)[C@H](CC(=O)O)NC1=O,–,–,Active
